Measured values from article PMC11831560, “Development of the Pyrido[2,3-d]pyrimidin-7(8H)-one Scaffold toward Potent and Selective NUAK1 Inhibitors” (ACS Medicinal Chemistry Letters, 2025).

What was measured:
MDR1 (P-gp) = experiment: MDR1-MDCK permeability (bi-directional); assay type: in vitro ADME, canine; settings: dog; for efflux ratio at 1 h, 10 µM / efflux ratio at 60 min, 10 µM: MDCK-MDR1, ratio of B-A to A-B permeabilities, read-out: MDCK ER (efflux ratio); for Papp at 60 min, 10 µM: MDR1-MDCK
Description: All single point assay determinations carried out in duplicate.

in vivo = settings: male, CD-1, mouse, ip, 5 mg/kg
Description: (§7) To investigate the effect of increasing mouse microsomal stability on in vivo half-lives, 9, 10 and 24 were coadministered with 3 in a mouse PK cassette (5 mgkg^–1, I.P.) (Table 5).
ADMET and PK experimental methods
(§8) Microsomal stability: analysis was performed by Cyprotex Discovery. Briefly, test compounds in
(§9) microsomes (0.5 mg protein/mL) in the presence of NADPH (1 mM) at 37 °C. Aliquots were taken at
(§10) generic LC-MS/MS conditions for compound remaining, allowing the determination of the half-life for
(§11) MDR1-MDCK Permeability (bi-directional): was performed by Cyprotex Discovery. Briefly,
(§12) compounds were administered at 10 µM (1% DMSO final) to the apical or basolateral side of a
(§13) confluent monolayer of MDR1- MDCK cells, then incubated at 37 °C for 60 minutes before appearance
(§14) on the opposite side of the monolayer was determined LC-MS/MS. The efflux ratio (ER) is calculated
(§15) from the ratio of B-A to A-B permeabilities.
(§16) Plasma protein binding: was performed by ChemPartner Co. Ltd. Briefly, compounds in DMSO (1
(§17) µM, 0.2% DMSO final) were added to mouse plasma or brain tissue and dialysed against buffer for 5
(§18) hrs at 37 °C. The compound concentration in each of the plasma and buffer compartments was
(§19) determined by mass spectrometry and used to calculate the percentage compound bound.
(§20) Pharmacokinetic analysis: was performed by ChemPartner Co. Ltd. Male CD-1 mice (N=3 per
(§21) timepoint) were intraperitoneally dosed at 5 mg/kg, as a cassette of five compounds, formulated in 10%
(§22) DMSO, 10% Solutol HS 15, 80% (50 mM citrate buffer pH3.0) at 0.5 mg/mL. At the designated time
(§23) points a blood sample was collected from the facial vein into K2EDTA tubes, and plasma separated by
(§24) centrifugation. Mice were euthanised by CO2 inhalation and brains were dissected and homogenised.
(§25) Compound levels were quantified by LC-MS/MS and PK parameters estimated by a non-compartmental
model using WinNonlin 8.2.

[1] = Mouse PK cassette (5 mg/kg, I.P.); settings: for Kp uu at 0.5 h: brain / plasma (unbound); for Kp at 0.5 h: brain / plasma; for AUCinf / Plasma t1/2: mouse, I.P., cassette
Description: as §7
ADMET and PK experimental methods
as §8, §9, §10, §11, §12, §13, §14, §15, §16, §17, §18, §19, §20, §21, §22, §23, §24, §25
model using WinNonlin 8.2.

EPH-A4 = EPH-A4 (Homo sapiens, UniProt P54764); experiment: Kinase panel radiometric filter binding (33P-ATP); assay type: biochemical; set-up: dose or concentration left out as unconfirmed
Description: (§1) Table S4: AMPKA kinase activity data (ADP-Glo assay)
(§2) Compound pIC50 (Fold selectivity
(§3) Table S5. Kinase selectivity screening for 9 and 24 at 1 µM against a general kinase panel of 140 targets
(§4) in radiometric filter binding assay using 33P-γ−ATP at the MRC PPU International Centre for Kinase
(§5) Profiling, University of Dundee. pIC50 values were determined for compounds with <20% activity
(§6) Kinase activity s.d. pIC50 activity s.d. pIC50

EPH-A2 = EPH-A2 (Homo sapiens, UniProt P29317); experiment: Kinase panel radiometric filter binding (33P-ATP); assay type: biochemical; set-up: dose or concentration left out as unconfirmed
Description: as §1, §2, §3, §4, §5, §6

EPH-B1 = EPH-B1 (Homo sapiens, UniProt P54762); experiment: Kinase panel radiometric filter binding (33P-ATP); assay type: biochemical; set-up: dose or concentration left out as unconfirmed
Description: as §1, §2, §3, §4, §5, §6

AMPK (hum) = AMPK (hum) (Homo sapiens, UniProt Q13131); experiment: Kinase panel radiometric filter binding (33P-ATP); assay type: biochemical; set-up: dose or concentration left out as unconfirmed
Description: as §1, §2, §3, §4, §5, §6

PIM3 = PIM3 (Homo sapiens, UniProt Q86V86); experiment: Kinase panel radiometric filter binding (33P-ATP); assay type: biochemical; set-up: dose or concentration left out as unconfirmed
Description: as §1, §2, §3, §4, §5, §6

CLK2 = CLK2 (Homo sapiens, UniProt P49760); experiment: Kinase panel radiometric filter binding (33P-ATP); assay type: biochemical; set-up: dose or concentration left out as unconfirmed
Description: as §1, §2, §3, §4, §5, §6

HIPK1 = HIPK1 (Homo sapiens, UniProt Q86Z02); experiment: Kinase panel radiometric filter binding (33P-ATP); assay type: biochemical; set-up: dose or concentration left out as unconfirmed
Description: as §1, §2, §3, §4, §5, §6

SIK3 = SIK3 (Homo sapiens, UniProt Q9Y2K2); experiment: Kinase panel radiometric filter binding (33P-ATP); assay type: biochemical; set-up: dose or concentration left out as unconfirmed
Description: as §1, §2, §3, §4, §5, §6

NEK2a = NEK2a (Homo sapiens, UniProt P51955); experiment: Kinase panel radiometric filter binding (33P-ATP); assay type: biochemical; set-up: dose or concentration left out as unconfirmed
Description: as §1, §2, §3, §4, §5, §6

ERK8 = ERK8 (Homo sapiens, UniProt Q8TD08); experiment: Kinase panel radiometric filter binding (33P-ATP); assay type: biochemical; set-up: dose or concentration left out as unconfirmed
Description: as §1, §2, §3, §4, §5, §6

MAPKAP-K2 = MAPKAP-K2 (Homo sapiens, UniProt P49137); experiment: Kinase panel radiometric filter binding (33P-ATP); assay type: biochemical; set-up: dose or concentration left out as unconfirmed
Description: as §1, §2, §3, §4, §5, §6

RSK2 = RSK2 (Homo sapiens, UniProt P51812); experiment: Kinase panel radiometric filter binding (33P-ATP); assay type: biochemical; set-up: dose or concentration left out as unconfirmed
Description: as §1, §2, §3, §4, §5, §6

BRK = BRK (Homo sapiens, UniProt Q13882); experiment: Kinase panel radiometric filter binding (33P-ATP); assay type: biochemical; set-up: dose or concentration left out as unconfirmed
Description: as §1, §2, §3, §4, §5, §6

TGFBR1 = TGFBR1 (Homo sapiens, UniProt P36897); experiment: Kinase panel radiometric filter binding (33P-ATP); assay type: biochemical; set-up: dose or concentration left out as unconfirmed
Description: as §1, §2, §3, §4, §5, §6

PDK1 = PDK1 (Homo sapiens, UniProt O15530); experiment: Kinase panel radiometric filter binding (33P-ATP); assay type: biochemical; set-up: dose or concentration left out as unconfirmed
Description: as §1, §2, §3, §4, §5, §6

CAMK1 = CAMK1 (Homo sapiens, UniProt Q14012); experiment: Kinase panel radiometric filter binding (33P-ATP); assay type: biochemical; set-up: dose or concentration left out as unconfirmed
Description: as §1, §2, §3, §4, §5, §6

RIPK2 = RIPK2 (Homo sapiens, UniProt O43353); experiment: Kinase panel radiometric filter binding (33P-ATP); assay type: biochemical; set-up: dose or concentration left out as unconfirmed
Description: as §1, §2, §3, §4, §5, §6

DAPK1 = DAPK1 (Homo sapiens, UniProt P53355); experiment: Kinase panel radiometric filter binding (33P-ATP); assay type: biochemical; set-up: dose or concentration left out as unconfirmed
Description: as §1, §2, §3, §4, §5, §6

PDGFRA = PDGFRA (Homo sapiens, UniProt P16234); experiment: Kinase panel radiometric filter binding (33P-ATP); assay type: biochemical; set-up: dose or concentration left out as unconfirmed
Description: as §1, §2, §3, §4, §5, §6

PAK5 = PAK5 (Homo sapiens, UniProt Q9P286); experiment: Kinase panel radiometric filter binding (33P-ATP); assay type: biochemical; set-up: dose or concentration left out as unconfirmed
Description: as §1, §2, §3, §4, §5, §6

MLK3 = MLK3 (Homo sapiens, UniProt Q16584); experiment: Kinase panel radiometric filter binding (33P-ATP); assay type: biochemical; set-up: dose or concentration left out as unconfirmed
Description: as §1, §2, §3, §4, §5, §6

BTK = BTK (Homo sapiens, UniProt Q06187); experiment: Kinase panel radiometric filter binding (33P-ATP); assay type: biochemical; set-up: dose or concentration left out as unconfirmed
Description: as §1, §2, §3, §4, §5, §6

NUAK1 = target: T1, NUAK1 (Homo sapiens, UniProt O60285); experiment: Kinase panel radiometric filter binding (33P-ATP); assay type: biochemical; set-up: purchased MRC PPU; dose or concentration left out as unconfirmed
T1 sequence (O60285 1-661): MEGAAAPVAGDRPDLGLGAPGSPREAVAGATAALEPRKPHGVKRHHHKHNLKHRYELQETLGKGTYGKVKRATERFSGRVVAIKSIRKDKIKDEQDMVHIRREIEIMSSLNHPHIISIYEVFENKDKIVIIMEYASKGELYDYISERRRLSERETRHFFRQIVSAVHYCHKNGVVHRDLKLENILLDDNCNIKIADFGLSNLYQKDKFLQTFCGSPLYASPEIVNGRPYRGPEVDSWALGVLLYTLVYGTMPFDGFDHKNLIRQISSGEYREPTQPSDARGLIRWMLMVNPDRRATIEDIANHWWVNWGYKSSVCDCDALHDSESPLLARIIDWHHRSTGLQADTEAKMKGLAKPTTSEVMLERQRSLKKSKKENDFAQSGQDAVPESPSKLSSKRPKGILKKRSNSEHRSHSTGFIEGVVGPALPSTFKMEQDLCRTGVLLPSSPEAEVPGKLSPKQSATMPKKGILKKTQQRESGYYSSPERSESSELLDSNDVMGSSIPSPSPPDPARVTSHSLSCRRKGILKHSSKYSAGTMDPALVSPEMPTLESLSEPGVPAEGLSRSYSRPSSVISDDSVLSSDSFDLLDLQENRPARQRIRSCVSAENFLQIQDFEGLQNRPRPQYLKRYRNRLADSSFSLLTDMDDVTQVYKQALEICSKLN
Description: as §1, §2, §3, §4, §5, §6

Sequence of RIPK2 (O43353 whole entry): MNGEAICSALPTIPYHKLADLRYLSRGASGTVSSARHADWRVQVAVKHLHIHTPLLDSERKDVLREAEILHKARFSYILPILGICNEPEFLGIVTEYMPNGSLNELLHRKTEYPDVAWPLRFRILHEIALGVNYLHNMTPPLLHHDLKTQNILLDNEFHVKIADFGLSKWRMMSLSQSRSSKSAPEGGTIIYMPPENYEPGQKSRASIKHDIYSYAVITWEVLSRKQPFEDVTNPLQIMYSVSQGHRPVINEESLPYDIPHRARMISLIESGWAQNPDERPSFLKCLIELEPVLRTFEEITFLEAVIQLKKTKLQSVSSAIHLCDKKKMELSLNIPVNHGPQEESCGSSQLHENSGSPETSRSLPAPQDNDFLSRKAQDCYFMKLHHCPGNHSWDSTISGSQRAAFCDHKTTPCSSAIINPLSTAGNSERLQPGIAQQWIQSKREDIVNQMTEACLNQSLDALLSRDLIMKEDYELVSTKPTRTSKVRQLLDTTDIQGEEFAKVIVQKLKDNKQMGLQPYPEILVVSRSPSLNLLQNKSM
Sequence of CLK2 (P49760 whole entry): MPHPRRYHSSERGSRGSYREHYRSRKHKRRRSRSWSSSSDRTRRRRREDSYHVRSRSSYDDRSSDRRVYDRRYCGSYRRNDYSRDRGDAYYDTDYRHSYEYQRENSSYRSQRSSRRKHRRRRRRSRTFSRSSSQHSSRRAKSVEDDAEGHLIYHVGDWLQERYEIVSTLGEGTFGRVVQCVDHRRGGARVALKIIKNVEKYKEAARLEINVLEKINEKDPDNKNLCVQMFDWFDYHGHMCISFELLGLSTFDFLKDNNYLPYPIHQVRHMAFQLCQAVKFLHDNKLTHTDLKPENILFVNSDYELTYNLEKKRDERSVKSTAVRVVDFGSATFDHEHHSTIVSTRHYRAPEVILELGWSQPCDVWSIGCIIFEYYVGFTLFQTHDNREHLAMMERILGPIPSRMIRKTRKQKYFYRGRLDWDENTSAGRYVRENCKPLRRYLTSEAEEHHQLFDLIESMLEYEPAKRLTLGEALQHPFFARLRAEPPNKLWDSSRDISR
Sequence of MLK3 (Q16584 whole entry): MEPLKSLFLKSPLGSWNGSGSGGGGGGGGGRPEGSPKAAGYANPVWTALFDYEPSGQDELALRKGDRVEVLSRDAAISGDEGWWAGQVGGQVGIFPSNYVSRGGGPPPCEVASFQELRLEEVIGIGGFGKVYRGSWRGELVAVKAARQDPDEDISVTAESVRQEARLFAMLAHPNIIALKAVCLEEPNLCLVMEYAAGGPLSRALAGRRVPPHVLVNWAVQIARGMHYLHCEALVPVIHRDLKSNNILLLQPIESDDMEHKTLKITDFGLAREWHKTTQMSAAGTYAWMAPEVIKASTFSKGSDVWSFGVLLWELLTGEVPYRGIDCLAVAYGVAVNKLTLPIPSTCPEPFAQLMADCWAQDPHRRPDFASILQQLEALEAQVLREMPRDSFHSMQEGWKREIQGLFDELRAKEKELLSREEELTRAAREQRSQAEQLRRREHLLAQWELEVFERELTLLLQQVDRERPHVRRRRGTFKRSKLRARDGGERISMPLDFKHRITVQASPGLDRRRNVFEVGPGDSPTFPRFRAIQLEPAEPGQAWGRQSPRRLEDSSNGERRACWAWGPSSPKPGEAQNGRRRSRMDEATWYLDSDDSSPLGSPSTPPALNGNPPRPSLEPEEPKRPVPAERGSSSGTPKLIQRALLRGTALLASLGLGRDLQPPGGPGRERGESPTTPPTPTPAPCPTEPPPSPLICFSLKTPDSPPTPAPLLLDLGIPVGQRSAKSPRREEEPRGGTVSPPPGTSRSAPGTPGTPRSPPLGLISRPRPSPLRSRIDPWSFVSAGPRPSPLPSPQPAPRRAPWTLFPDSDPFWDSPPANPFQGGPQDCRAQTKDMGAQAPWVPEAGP
Sequence of CAMK1 (Q14012 whole entry): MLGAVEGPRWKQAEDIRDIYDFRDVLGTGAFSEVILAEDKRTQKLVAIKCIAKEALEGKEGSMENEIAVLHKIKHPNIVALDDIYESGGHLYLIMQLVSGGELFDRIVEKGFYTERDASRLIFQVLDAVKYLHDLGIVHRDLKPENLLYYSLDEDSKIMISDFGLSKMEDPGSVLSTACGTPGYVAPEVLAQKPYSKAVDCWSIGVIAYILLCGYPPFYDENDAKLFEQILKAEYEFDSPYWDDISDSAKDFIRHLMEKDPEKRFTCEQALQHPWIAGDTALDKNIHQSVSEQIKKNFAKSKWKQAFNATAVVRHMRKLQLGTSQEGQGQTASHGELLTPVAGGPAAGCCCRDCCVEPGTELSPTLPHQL
Sequence of PDK1 (O15530 whole entry): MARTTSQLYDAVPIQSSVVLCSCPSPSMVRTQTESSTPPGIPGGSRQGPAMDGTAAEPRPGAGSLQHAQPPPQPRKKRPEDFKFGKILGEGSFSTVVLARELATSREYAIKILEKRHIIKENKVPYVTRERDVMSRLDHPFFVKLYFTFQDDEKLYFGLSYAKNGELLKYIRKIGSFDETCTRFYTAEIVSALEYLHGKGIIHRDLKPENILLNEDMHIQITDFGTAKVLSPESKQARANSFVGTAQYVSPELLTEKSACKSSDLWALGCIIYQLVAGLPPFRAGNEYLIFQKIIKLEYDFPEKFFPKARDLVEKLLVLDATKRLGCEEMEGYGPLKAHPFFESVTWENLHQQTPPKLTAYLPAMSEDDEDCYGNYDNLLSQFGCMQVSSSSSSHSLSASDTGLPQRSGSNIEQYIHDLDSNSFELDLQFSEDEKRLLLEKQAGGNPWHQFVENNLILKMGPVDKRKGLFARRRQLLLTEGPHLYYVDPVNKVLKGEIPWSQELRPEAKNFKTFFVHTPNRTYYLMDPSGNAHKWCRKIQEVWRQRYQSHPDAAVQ
Sequence of MAPKAP-K2 (P49137 whole entry): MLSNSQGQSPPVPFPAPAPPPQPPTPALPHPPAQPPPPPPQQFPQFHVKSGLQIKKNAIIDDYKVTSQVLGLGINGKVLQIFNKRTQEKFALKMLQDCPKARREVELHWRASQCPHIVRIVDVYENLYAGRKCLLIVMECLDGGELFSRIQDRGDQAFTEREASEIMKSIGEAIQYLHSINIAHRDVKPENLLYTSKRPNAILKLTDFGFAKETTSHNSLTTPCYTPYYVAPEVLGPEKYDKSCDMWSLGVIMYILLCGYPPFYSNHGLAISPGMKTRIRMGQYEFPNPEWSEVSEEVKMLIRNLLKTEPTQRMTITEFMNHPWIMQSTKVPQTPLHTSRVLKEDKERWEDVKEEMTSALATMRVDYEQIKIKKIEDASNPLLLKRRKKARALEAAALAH
Sequence of EPH-B1 (P54762 18-984): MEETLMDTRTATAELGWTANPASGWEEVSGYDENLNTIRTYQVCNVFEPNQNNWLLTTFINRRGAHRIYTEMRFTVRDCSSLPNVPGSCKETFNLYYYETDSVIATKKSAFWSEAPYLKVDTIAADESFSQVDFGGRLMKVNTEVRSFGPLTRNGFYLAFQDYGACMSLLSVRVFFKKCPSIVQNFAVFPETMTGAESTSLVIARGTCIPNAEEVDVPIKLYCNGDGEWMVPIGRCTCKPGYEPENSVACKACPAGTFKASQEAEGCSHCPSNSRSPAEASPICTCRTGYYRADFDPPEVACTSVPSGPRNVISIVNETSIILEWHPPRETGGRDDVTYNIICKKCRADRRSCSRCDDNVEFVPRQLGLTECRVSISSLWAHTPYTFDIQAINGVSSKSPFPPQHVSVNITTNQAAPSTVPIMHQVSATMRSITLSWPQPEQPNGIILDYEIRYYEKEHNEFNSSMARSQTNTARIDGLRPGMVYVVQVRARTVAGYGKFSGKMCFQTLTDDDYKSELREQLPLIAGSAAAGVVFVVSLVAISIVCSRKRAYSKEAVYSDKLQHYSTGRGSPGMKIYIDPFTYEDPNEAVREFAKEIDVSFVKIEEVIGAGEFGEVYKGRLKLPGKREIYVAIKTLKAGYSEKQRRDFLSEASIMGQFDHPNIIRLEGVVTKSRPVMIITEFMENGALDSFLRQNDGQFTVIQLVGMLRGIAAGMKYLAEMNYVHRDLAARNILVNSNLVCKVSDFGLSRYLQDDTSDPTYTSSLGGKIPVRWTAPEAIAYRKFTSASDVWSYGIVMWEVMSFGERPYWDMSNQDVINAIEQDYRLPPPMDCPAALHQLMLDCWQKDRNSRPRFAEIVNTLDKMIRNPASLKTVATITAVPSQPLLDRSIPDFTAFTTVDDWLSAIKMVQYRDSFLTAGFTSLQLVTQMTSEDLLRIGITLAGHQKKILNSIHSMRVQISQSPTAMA
Sequence of TGFBR1 (P36897 34-503): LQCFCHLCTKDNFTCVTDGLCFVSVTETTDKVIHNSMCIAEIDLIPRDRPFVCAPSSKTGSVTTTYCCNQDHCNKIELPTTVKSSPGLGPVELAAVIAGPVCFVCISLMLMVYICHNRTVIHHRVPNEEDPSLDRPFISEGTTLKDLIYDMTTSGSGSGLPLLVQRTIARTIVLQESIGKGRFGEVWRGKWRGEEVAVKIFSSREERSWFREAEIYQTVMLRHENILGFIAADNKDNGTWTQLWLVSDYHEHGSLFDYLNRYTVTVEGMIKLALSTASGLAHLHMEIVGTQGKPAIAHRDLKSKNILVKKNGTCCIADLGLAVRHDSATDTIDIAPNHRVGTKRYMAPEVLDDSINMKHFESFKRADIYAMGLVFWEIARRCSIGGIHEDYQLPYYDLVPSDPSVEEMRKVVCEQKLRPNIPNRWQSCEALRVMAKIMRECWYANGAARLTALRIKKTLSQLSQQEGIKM

CN1C2CC1CN(c1ccc(Nc3ncc4cc(C#N)c(=O)n(C5CCCC5)c4n3)cc1)C2 [Compound 10]
efflux ratio at 1 h, 10 µM (MDR1 (P-gp)): 50
efflux ratio at 60 min, 10 µM (MDR1 (P-gp)): 49.5
Papp at 60 min, 10 µM (MDR1 (P-gp)): 1.24 ×10⁻⁶ cm/s
concentration at 30 min (in vivo): 293 ng/mL
concentration at 2 h (in vivo): 146 ng/mL
Kp uu at 0.5 h ([1]; male, CD-1, mouse, ip): 0.37
Kp at 0.5 h ([1]; male, CD-1, mouse, ip): 0.7
AUCinf [1]: 1131 ng·h/mL
Plasma t1/2 [1]: 66 min

CN1C2CC1CN(c1ccc(Nc3ncc4ccn(CC5CCOCC5)c4n3)cc1)C2 [Compound 24]
efflux ratio at 1 h, 10 µM (MDR1 (P-gp)): 71
efflux ratio at 60 min, 10 µM (MDR1 (P-gp)): 70.8
Papp at 60 min, 10 µM (MDR1 (P-gp)): 1.05 ×10⁻⁶ cm/s
concentration at 30 min (in vivo): 220 ng/mL
concentration at 2 h (in vivo): 26.9 ng/mL
% activity remaining (EPH-A4): 91%
% activity remaining (EPH-A2): 76%
% activity remaining (EPH-B1): 87%
% activity remaining (AMPK (hum)): 81%
% activity remaining (PIM3): 56%
% activity remaining (CLK2): 90%
% activity remaining (HIPK1): 82%
% activity remaining (SIK3): 74%
% activity remaining (NEK2a): 77%
% activity remaining (ERK8): 76%
% activity remaining (MAPKAP-K2): 95%
% activity remaining (RSK2): 73%
% activity remaining (BRK): 58%
% activity remaining (TGFBR1): 75%
% activity remaining (PDK1): 95%
% activity remaining (CAMK1): 129%
% activity remaining (RIPK2): 73%
% activity remaining (DAPK1): 125%
% activity remaining (PDGFRA): 90%
% activity remaining (PAK5): 99%
% activity remaining (MLK3): 91%
% activity remaining (BTK): 82%
% activity remaining (NUAK1): 14%
Kp uu at 0.5 h ([1]; male, CD-1, mouse, ip): 0.52
Kp at 0.5 h ([1]; male, CD-1, mouse, ip): 0.9
AUCinf [1]: 365 ng·h/mL
Plasma t1/2 [1]: 42 min

CN1CCN(c2ccc(Nc3ncc4cc(C#N)c(=O)n(C5CCCC5)c4n3)cc2)CC1 [Compound 3, Narazaciclib, reference compound]
efflux ratio at 1 h, 10 µM (MDR1 (P-gp)): 5.6
Papp at 60 min, 10 µM (MDR1 (P-gp)): 1.98 ×10⁻⁶ cm/s
Kp uu at 0.5 h ([1]; male, CD-1, mouse, ip): 0.29
Kp at 0.5 h ([1]; male, CD-1, mouse, ip): 1.9
concentration at 30 min ([1]; male, CD-1, mouse, brain, ip): 1160 ng/mL
concentration at 2 h ([1]; male, CD-1, mouse, brain, ip): 181 ng/mL
AUCinf [1]: 897 ng·h/mL
Plasma t1/2 [1]: 54 min

Cc1cc(=O)n(C2CCCC2)c2nc(Nc3ccc(N4CC5CC(C4)N5C)cc3)ncc12 [Compound 9]
efflux ratio at 1 h, 10 µM (MDR1 (P-gp)): 4.8
Papp at 60 min, 10 µM (MDR1 (P-gp)): 1.01 ×10⁻⁶ cm/s
concentration at 30 min (in vivo): 573 ng/mL
concentration at 2 h (in vivo): 176 ng/mL
% activity remaining (EPH-A4): 90%
% activity remaining (EPH-A2): 77%
% activity remaining (EPH-B1): 51%
% activity remaining (AMPK (hum)): 19%
% activity remaining (PIM3): 80%
% activity remaining (CLK2): 23%
% activity remaining (HIPK1): 88%
% activity remaining (SIK3): 85%
% activity remaining (NEK2a): 36%
% activity remaining (ERK8): 47%
% activity remaining (MAPKAP-K2): 110%
% activity remaining (RSK2): 49%
% activity remaining (BRK): 67%
% activity remaining (TGFBR1): 92%
% activity remaining (PDK1): 90%
% activity remaining (CAMK1): 102%
% activity remaining (RIPK2): 78%
% activity remaining (DAPK1): 60%
% activity remaining (PDGFRA): 57%
% activity remaining (PAK5): 64%
% activity remaining (MLK3): 43%
% activity remaining (BTK): 91%
% activity remaining (NUAK1): 5%
Kp uu at 0.5 h ([1]; male, CD-1, mouse, ip): 0.4
Kp at 0.5 h ([1]; male, CD-1, mouse, ip): 0.8
AUCinf [1]: 1358 ng·h/mL
Plasma t1/2 [1]: 54 min
